Data on one compound can be found in US4939156A (priority 1987, dated 1990).

A short description of data set [1]: in vitro. To be noted: human, hela-y cells.
Data set [2] in a line: in vitro. The settings on record: monkey, vero cells.
For data set [3], the system named is Vaccinia virus Lister strain. Put plainly: organism not typed. Format: cell-based.
Data set [4] concerns human premyelocytic leukemia cells (HL-60). The data set can be described thus: NBT-reducing ability (differentiation) of HL-60 cells after treatment with test compound. The data set is classed as cell-based. The settings on record: 0.1% NBT, 37° C., 20 minutes. The method, then:
(§1) The human premyelocytic elukemia cells (HL-60 cell) are characterized by the ability to respond to pharmacological inducers of differentiation and can produce the normal granulocytes when they have been differentiated, as described in the "Blood" Vol. 54, No. 3, 713-733 (1979).
(§2) Thus, firstly the cell differentiation-inducing activity of the compound was assayed by the following procedure described in said "Blood". Namely, HL-60 cells were incubated by passing successively through RPMI 1640 media supplemented with 10% FCS (fetal calf serum), followed by adding the test compound at varying concentrations to aliquots of the culture of the HL-60 cells at the logarithmic phase of growth. The HL-60 cells thus incubated were further incubated in the presence of the test compound for 6 days and subsequently fixed to slide glasses. The fixed HL-60 cells were stained with May-Gruenwald-Giemsa's reagent and the morphology of the nuclei in the stained cells was examined to judge which of the cells has been differentiated into the normal granulocytes. Then, the number of the HL-60 cells which had propagated were counted.
Secondly, the another aliquot of the culture of the HL-60 cells which were incubated in the above procedure in the presence of the test compound at its evaluated "IC50 " concentration was centrifuged to collect the cells, which were then diluted with a volume of RPMI 1640 medium supplemented with 10% FCS, to provide a given concentration of the cells. Subsequently, the cells which were diluted with said medium were added and mixed with 0.1% of NBT and then incubated at 37° C. for 20 minutes. The number of the cells which stained black color owing to the involved reduction of NBT and which could be judged to have the ability to reduce NBT was counted.

The nature of data set [5]: in vitro. To be noted: mouse, l-929 cells.
Data set [6] concerns Herpes simplex virus (HSV) Type 2 196 strain. The data set can be described thus: Antiviral activity, Virus No. 5 infested Vero cell. The data set is classed as cell-based.
Data set [7] relates to Newcastle disease virus (NDV) Miyadera strain. Put plainly: microbe, parasite or virus in culture. Format: cell-based.
Data set [8] relates to Influenza virus A/PR/8/34 strain. The data set can be described thus: Antiviral activity, Virus No. 1 infested MDCK cell. The data set is classed as cell-based.
Another data set has as its system mice. The data set can be described thus: Acute toxicity in mice given i.p. Format: in vivo. To be noted: twice a day, 4 days, counted at 5th day. The method, then:
For estimation of toxicity of the new compounds of this invention for mammalian animals, acute toxicity of the TI-27 Substance of Example 1 as a representative example was tested by intraperitoneal administration of a suspension of 25 mg/ml of TI-27 substance in a 0.5% aqueous solution of carboxymethyl cellulose (CMC) to mice (five in each group). The TI-27 substance was given to mice twice a day at a unit dosage of 5 mg, 1.25 mg, 0.313 mg, 0.078 mg or 0.02 mg per mouse for consecutive 4 days, totally 8 times. The number of the surviving mice which tolerated the administration of TI-27 Substance was counted at the 5th day of the tests.

Data set [9] has as its system human premyelocytic leukemia cells (HL-60). Put plainly: 50% inhibition of propagation of undifferentiated human premyelocytic leukemia HL-60 cells. Format: cell-based. To be noted: 144 h, 6 days incubation, read-out: Activity of test compound to inhibit by 50% the undifferentiated propagation of HL-60 cells (IC50). The method, then:
as §1, §2
As said "IC50 " concentration of the test compound was assumed such concentration of the test compound at which the counted number of the HL-60 cells having propagated was reduced by 50%, as compared to that counted in the control tests where the test compound was not used.

The nature of data set [10]: in vitro. To be noted: dog, mdck.
In data set [11] the test system is vesicular stomatitis virus (VSV) New Jersey strain. Put plainly: microbe, parasite or virus in culture. The data set is classed as cell-based.

Converted amounts (≈) assume the structure as drawn.

With `CN1C(=O)[C@@H]2[C@H](N(C)C1=O)C(C)(C)C2(C)C` (relative stereo) [TI-27 Substance, 2,4,7,7,8,8-hexamethyl-cis-2,4-diaza-bicyclo{4.2.0}octane-3,5-dione], the MCC at 48 h came out at 250 µg/mL in “in vitro [1]”, 500 µg/mL in “in vitro [2]”, 250 µg/mL in “in vitro [5]” and 1000 µg/mL in “in vitro [10]”. In addition, the IC50 in data set [3] (48 h, read-out: Inhibitory Concentration (IC50) which inhibited by 50% the denaturation of Virus No. 4 infested HeLa-Y cell) is greater than 250 µg/mL; in data set [6] (48 h, HSV Type 2, Vero cell, […], read-out: Inhibitory Concentration (IC50) which inhibited by 50% the denaturation of Virus No. 5 infested Vello cell), greater than 500 µg/mL; in data set [7] (avian paramyxovirus 1, 48 h, read-out: Inhibitory Concentration (IC50) which inhibited by 50% the denaturation of Virus No. 2 infested HeLa-Y cell), greater than 250 µg/mL; in data set [8] (PR/8, MDCK, 48 h, read-out: Inhibitory Concentration (IC50) which inhibited by 50% the denaturation of Virus No. 1 infested MDCK cell), 188 µg/mL (≈ 838 µM); in data set [9], 35 µg/mL (≈ 156 µM); in [11] (Vesicular stomatitis virus, L929, 48 h, read-out: Inhibitory Concentration (IC50) which inhibited by 50% the denaturation of Virus No. 3 infested L-929 cell), greater than 500 µg/mL. Further, in data set [3] (figures in brackets, HeLa-Y cell, Vaccinia virus, 2880 min), the “Quotient of minimum denaturation concentration divided by IC50, Virus No. 4” value was less than 1.0. The “Percent of the number of the cells showing the NBT-reducing ability after treatment with test compound at IC50 concentration” value in data set [4] is on record as 51%. Also, in data set [6] (figures in brackets, Vero cell, HSV Type 2), the “Quotient of minimum denaturation concentration divided by IC50, Virus No. 5” value is less than 1.0. Further, the “Quotient of minimum denaturation concentration divided by IC50, Virus No. 2” value in data set [7] (figures in brackets, HeLa-Y cell, NDV, 2880 min) is less than 1.0. The “Quotient of minimum denaturation concentration divided by IC50, Virus No. 1” value in [8] (figures in brackets, MDCK cell, Influenza virus, 2880 min) is 5.32. In addition, the “Number of surviving mice/number of mice tested” value in the data set with mice (0.02 mg/mouse i.p.) was 5/5; with mice (0.078 mg/mouse i.p.), 5/5; in the data set on mice (0.313 mg/mouse i.p.) it was 5/5; in the data set with mice (1.25 mg/mouse i.p.), 1/5; with mice (5 mg/mouse i.p.) it was 0/5. In addition, the “Quotient of minimum denaturation concentration divided by IC50, Virus No. 3” value in data set [11] (figures in brackets, L-929 cell, VSV, 2880 min) was less than 1.0.
